Measured values reported in patent publication US9643967B2, “Pyrrolo[3,2-c]pyridine derivatives as TLR inhibitors” (TAKEDA PHARMACEUTICAL COMPANY LIMITED, priority 2013, dated 2017).
Where two headings read alike, the source gives them in different places.

Target: T1, mTLR9 (Mus musculus, UniProt Q9EQU3)
T1 construct: Splenocytes isolated from male C57/BL6 mice; from tissue; host or cells: splenocytes from the spleen of male C57BL/6 mice
T1 sequence (Q9EQU3 26-1032): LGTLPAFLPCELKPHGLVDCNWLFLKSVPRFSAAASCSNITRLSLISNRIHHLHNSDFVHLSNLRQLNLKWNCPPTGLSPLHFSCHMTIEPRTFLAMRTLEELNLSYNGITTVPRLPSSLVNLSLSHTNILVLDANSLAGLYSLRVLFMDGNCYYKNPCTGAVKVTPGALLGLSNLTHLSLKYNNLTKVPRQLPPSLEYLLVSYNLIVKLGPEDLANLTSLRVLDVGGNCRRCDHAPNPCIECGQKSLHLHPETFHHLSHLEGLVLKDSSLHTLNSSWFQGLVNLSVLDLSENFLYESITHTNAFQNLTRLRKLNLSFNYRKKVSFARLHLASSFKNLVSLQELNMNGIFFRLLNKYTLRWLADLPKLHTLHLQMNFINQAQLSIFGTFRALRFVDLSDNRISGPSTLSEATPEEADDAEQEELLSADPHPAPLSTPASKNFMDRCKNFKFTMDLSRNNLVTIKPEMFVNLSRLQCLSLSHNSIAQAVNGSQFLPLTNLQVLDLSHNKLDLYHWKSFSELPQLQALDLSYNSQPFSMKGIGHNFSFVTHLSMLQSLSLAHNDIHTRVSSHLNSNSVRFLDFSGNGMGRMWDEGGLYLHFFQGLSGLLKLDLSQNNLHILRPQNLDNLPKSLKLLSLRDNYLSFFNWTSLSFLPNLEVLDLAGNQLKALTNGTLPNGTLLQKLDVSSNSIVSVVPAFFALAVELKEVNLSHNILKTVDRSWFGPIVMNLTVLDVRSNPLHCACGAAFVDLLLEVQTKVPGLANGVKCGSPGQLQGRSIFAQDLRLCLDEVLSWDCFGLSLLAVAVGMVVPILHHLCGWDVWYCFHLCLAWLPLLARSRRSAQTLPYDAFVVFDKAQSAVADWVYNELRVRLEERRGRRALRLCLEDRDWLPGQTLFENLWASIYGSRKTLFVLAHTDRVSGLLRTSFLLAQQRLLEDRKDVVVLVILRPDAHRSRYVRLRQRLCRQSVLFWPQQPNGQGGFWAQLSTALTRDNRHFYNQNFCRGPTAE
Test: mTLR9 antagonism (IL-6 and TNF-α release assay) in mouse splenocytes, CpG ODN-2006 stimulated
Format: cell-based
Settings: 1 μM, mouse splenocytes
From the text: mTLR9 and mTLR7 Antagonism (Cytokine Release Assay) in Mouse Splenocytes
TLR7 ligand R0006 (IDT, 5′-rU*rU*rG*rU*rU*rG*rU*rU*rG*rU*rU*rG*rU*rU*rG*rU*rU*rG*rU*rU-3′ (SEQ ID NO:1)), Liposomal transfection reagent—DOTAP (Roche, Cat. No. 11202375001), TLR9 ligand CpG ODN2006 (Sequence: T*C*G*T*C*G*T*T*T*T*G*T*C*G*T*T*T*T*G*T*C*G*T*T; *=phosphorothioate (SEQ ID NO:2)) DMSO (Sigma, D2650), RPMI Powder (Sigma, R6504), Fetal Bovine Serum (Gibco, 10270), Dulbecco's Phosphate Buffered Saline (Sigma, D1408), 96 well plate (Flat bottom, Costar 3599), ELISA kit for IL-6 (EBioscience, 88-7064-77 and TNFa (EBioscience, 88-7346-88), MACS Buffer (AutoMACS Rinsing Solution (Miltenyl Biotec, 130-091-222)+0.05% BSA), RBC lysis buffer (0.85% NH4Cl), 40 μm cell strainer (BD Falcon, 352340) Method: A. Isolation of Mouse Splenocytes
Mouse spleen was isolated from C57BL6 mouse and stored in 1× chilled PBS buffer until further processed. Spleen was transferred to a sterile petriplate and chopped in to 5-6 pieces in presence of MACS buffer (100 μl) with the help of fresh surgical blade and crushed with flat plunger of a sterile syringe. A uniform suspension was prepared by passing cells through a 40 μm cell strainer. Cells were centrifuged at 450×g for 5 minutes at 4° C., supernatant was discarded and pellet dislodged gently, resuspended in 2 ml of pre-warmed (37° C.) RBC lysis buffer at room temperature with continuous gentle mixing with 1 ml pipette. Lysis buffer was neutralized with 12 ml of chilled MACS buffer and cells were passed through 40 μm cell strainer. Cell suspension was collected in 15 ml MACS buffer and centrifuged at 450×g for 5 minutes at 4° C. Pellet was resuspended in 15 ml MACS buffer and centrifuged at 400×g for 5 minutes. Cells were resuspended in 10 ml of RPMI complete medium and viability was estimated by Trypan blue method.
mTLR9 Antagonism (IL-6 and TNF-α Release Assay):
500 μM stock of CpG ODN-2006 was prepared in sterile, endotoxin-free water. Dilutions of 10× concentrations of NCEs were prepared in incomplete RPMI media, maintaining a final DMSO concentration of 0.3%. NCEs were added in a concentration range of 30 μM to 1 nM in respective wells of assay plate, assay medium containing 0.3% DMSO were added to control wells. 0.2 million splenocytes were added to all the wells and incubated at 37° C. in 5% CO2 incubator for 30 minutes. 1 μg/ml of respective agonist was added to all the wells except those were assigned as negative controls and mixed thoroughly. Incomplete RPMI was added to negative control wells and incubated overnight at 37° C./5% CO2. The plate was centrifuged at 450×g for 5 minutes at room temperature and the supernatant was collected. ELISA was performed as per manufacturer's protocol. S/B Ratio, % Activity and % Inhibition was calculated using MS Excel. IC50 and inhibition curve was generated using Graph Pad Prism.

[1] = TNF-α release, read-out: mTLR9 inhibitory activity (% at 1 μM), TNF-α
[2] = IL-6 release, read-out: mTLR9 inhibitory activity (% at 1 μM), IL-6

Row | Structure (SMILES) | inhibition at 1 µM [1] | inhibition at 1 µM [2]
1 | Cc1nc(-c2ccc(N3CCN(C)CC3)cc2)c2cc(CN3CCOCC3)[nH]c2c1C [Example A37, 4-[[6,7-dimethyl-4-[4-(4-methylpiperazin-1-yl)phenyl]-1H-pyrrolo[3,2-c]pyridin-2-yl]methyl] morpholine] | 100% | 
2 | CCN1CCN(c2ccc(-c3nc(C)c(C)c4[nH]c(CN5CCOCC5)cc34)cc2)CC1 [Example A38, 4-[[4-[4-(4-ethylpiperazin-1-yl)phenyl]-6,7-dimethyl-1H-pyrrolo[3,2-c]pyridin-2-yl]methyl] morpholine] | 100% | 100%
3 | Cc1nc(-c2ccc(N3CCN(C(C)C)CC3)cc2)c2cc(CN3CCCCC3)[nH]c2c1C [Example A39, 4-[4-(4-isopropylpiperazin-1-yl)phenyl]-6,7-dimethyl-2-(1-piperidylmethyl)-1H-pyrrolo[3,2-c]pyridine] | 100% | 
4 | Cc1nc(-c2ccc(N3CCN(C(C)C)CC3)cc2)c2cc(CN3CCCC3)[nH]c2c1C [Example A40, 4-[4-(4-isopropylpiperazin-1-yl)phenyl]-6,7-dimethyl 2-(pyrrolidin-1-ylmethyl)-1H-pyrrolo[3,2-c)pyridine] | 100% | 
5 | c1cc2[nH]c(CN3CCOCC3)cc2c(-c2ccc(N3CCNCC3)cc2)n1 [Example A42, 4-[[4-(4-(piperazin-1-yl)phenyl)-1H-pyrrolo[3,2-c]pyridin-2-yl]methyl] morpholine] | 41% | 84%
6 | c1cc2[nH]c(CN3CCOCC3)cc2c(-c2ccc(OC3CCNCC3)cc2)n1 [Example A49, 4-[[4-[4-(4-piperidyloxy)phenyl]-1H-pyrrolo[3,2-c]pyridin-2-yl]methyl]morpholine] | 15% | 65%
7 | Cc1cc2[nH]c(CN3CCOCC3)cc2c(-c2ccc(C3CCN(C(C)C)CC3)cc2)n1 [Example A51, 4-[[4-[4-(1-isopropyl-4-piperidyl)phenyl]-6-methyl-1H-pyrrolo[3,2-c]pyridin-2-yl]methyl]morpholine] | 90% | 100%
8 | CC(C)N1CC=C(c2ccc(-c3nccc4[nH]c(CN5CCOCC5)cc34)cn2)CC1 [Example A52, 4-[[4-[6-(1-isopropyl-3,6-dihydro-2H-pyridin-4-yl)-3-pyridyl]-1H-pyrrolo[3,2-c]pyridin-2-yl]methyl]morpholine] | 29% | 100%
9 | CC(C)N1CCN(c2ccc(-c3nccc4[nH]c(CN5CCOCC5)cc34)cn2)CC1 [Example A53, 4-[[4-[6-(4-isopropylpiperazin-1-yl)-3-pyridyl]-1H-pyrrolo[3,2-c]pyridin-2-yl]methyl]morpholine] | 80% | 100%
10 | CC(C)N1CCC(n2cc(-c3nccc4[nH]c(CN5CCOCC5)cc34)cn2)CC1 [Example A54, 4-[[4-[1-(1-isopropyl-4-piperidyl)pyrazol-4-yl]-1H-pyrrolo[3,2-c]pyridin-2-yl]methyl]morpholine] | 0% | 
11 | CC(C)N1CCN(Cc2ccc(-c3nccc4[nH]c(CN5CCOCC5)cc34)cc2)CC1 [Example A55, 4-[[4-[4-[(4-isopropylpiperazin-1-yl)methyl]phenyl]-1H-pyrrolo[3,2-c]pyridin-2-yl]methyl]morpholine] | 59% | 96%
12 | CC(C)N1CCC(Oc2ccc(-c3nccc4[nH]c(CN5CCOCC5)cc34)cc2)CC1 [Example A56, 4-[[4-[4-[(1-isopropyl-4-piperidyl)oxy]phenyl]-1H-pyrrolo[3,2-c]pyridin-2-yl]methyl]morpholine] | 71% | 
13 | CC(C)N1CCN(c2cccc(-c3nccc4[nH]c(CN5CCOCC5)cc34)c2)CC1 [Example A57, 4-[[4-[3-(4-isopropylpiperazin-1-yl)phenyl]-1H-pyrrolo[3,2-c]pyridin-2-yl]methyl]morpholine] | 34% | 100%
14 | CN1CCN(Cc2ccc(-c3nccc4[nH]c(CN5CCOCC5)cc34)cc2)CC1 [Example A60, 4-[[4-[4-[(4-methylpiperazin-1-yl)methyl]phenyl]-1H-pyrrolo[3,2-c]pyridin-2-yl]methyl]morpholine] | 38% | 0%
15 | CN1CCN(c2cccc(-c3nccc4[nH]c(CN5CCOCC5)cc34)c2)CC1 [Example A61, 4-[[4-[3-(4-methylpiperazin-1-yl)phenyl]-1H-pyrrolo[3,2-c]pyridin-2-yl]methyl]morpholine] | 45% | 100%
16 | CN1CCC(Oc2ccc(-c3nccc4[nH]c(CN5CCOCC5)cc34)cc2)CC1 [Example A62, 4-[[4-[4-[(1-methyl-4-piperidyl)oxy]phenyl]-1H-pyrrolo[3,2-c]pyridin-2-yl]methyl]morpholine] | 79% | 
17 | CN1CCC(n2cc(-c3nccc4[nH]c(CN5CCOCC5)cc34)cn2)CC1 [Example A63, 4-[[4-[1-(1-methyl-4-piperidyl)pyrazol-4-yl]-1H-pyrrolo[3,2-c]pyridin-2-yl]methyl]morpholine] | 0% | 
18 | CC(C)N1CCC(c2ccc(-c3nccc4[nH]c(CN5CCOCC5)cc34)cn2)CC1 [Example A64, 4-[[4-[6-(1-isopropyl-4-piperidyl)-3-pyridyl]-1H-pyrrolo[3,2-c]pyridin-2-yl]methyl]morpholine] | 0% | 25%
19 | CC(C)N1CCC(c2ccc(-c3nccc4[nH]c(CN5CCOCC5)cc34)cc2)CC1 [Example A70, 4-[[4-[4-(1-isopropyl-4-piperidyl)phenyl]-1H-pyrrolo[3,2-c]pyridin-2-yl]methyl]morpholine] | 52% | 95%
20 | CC(C)N1CCN(c2ccc(-c3nccc4[nH]c(CN5CC(O)C5)cc34)cc2)CC1 [Example A72, 1-[[4-[4-(4-isopropylpiperazin-1-yl)phenyl]-1H-pyrrolo[3,2-c]pyridin-2-yl]methyl]azetidin-3-ol] | 0% | 72%
21 | CC(C)N1CCN(c2ccc(-c3nccc4[nH]c(CN5CCC[C@@H]5C(=O)O)cc34)cc2)CC1 [Example A74, (2R)-1-[[4-[4-(4-isopropylpiperazin-1-yl)phenyl]-1H-pyrrolo[3,2-c]pyridin-2-yl]methyl]pyrrolidine-2-carboxylic acid] | 95% | 
